Values quoted from earlier work, collected in patent US20090226517A1, “PHARMACEUTICAL FORMULATIONS COMPRISING DULOXETINE” (priority 2008, published 2009).

Details: background statement; limited aqueous solubility

Compound: CNCC[C@H](Oc1cccc2ccccc12)c1cccs1 [Duloxetine]
- BCS class: BCS class II
